In patent US20250002475A1 (EPICS THERAPEUTICS, priority 2023, published 2025):

Tests used:
Kasumi-1 cells = experiment: Kasumi-1 cellular viability assay (ATP-Lite, 72 h); format: cell-based; details: Homo sapiens, ATP-Lite luminescence, % viability relative to DMSO
How it was run: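 Kasumi-1 AML cells, 15000/well in RPMI-1640 with 10% FBS, were exposed to compound titrations (0.1% final DMSO) for 72 h at 37 °C, 5% CO2. ATP-Lite One Step luminescence gave % viability versus DMSO control, and IC50 came from the concentration-response.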

[1] = target: T1, recombinant METTL3/METTL14 complex (Homo sapiens, UniProt Q86U44); experiment: METTL3/14 Scintillation Proximity Assay (SPA), RNA methyltransferase activity; format: biochemical; details: 5.31 nM METTL3/14 complex, 250 nM RNA substrate, 1 μM 3H-SAM, 90 min; for compounds marked * best of the two separated forms
T1 construct: purchased Active Motif 311970; host or cells: Sf9 cells
T1 sequence (Q86U44 whole entry): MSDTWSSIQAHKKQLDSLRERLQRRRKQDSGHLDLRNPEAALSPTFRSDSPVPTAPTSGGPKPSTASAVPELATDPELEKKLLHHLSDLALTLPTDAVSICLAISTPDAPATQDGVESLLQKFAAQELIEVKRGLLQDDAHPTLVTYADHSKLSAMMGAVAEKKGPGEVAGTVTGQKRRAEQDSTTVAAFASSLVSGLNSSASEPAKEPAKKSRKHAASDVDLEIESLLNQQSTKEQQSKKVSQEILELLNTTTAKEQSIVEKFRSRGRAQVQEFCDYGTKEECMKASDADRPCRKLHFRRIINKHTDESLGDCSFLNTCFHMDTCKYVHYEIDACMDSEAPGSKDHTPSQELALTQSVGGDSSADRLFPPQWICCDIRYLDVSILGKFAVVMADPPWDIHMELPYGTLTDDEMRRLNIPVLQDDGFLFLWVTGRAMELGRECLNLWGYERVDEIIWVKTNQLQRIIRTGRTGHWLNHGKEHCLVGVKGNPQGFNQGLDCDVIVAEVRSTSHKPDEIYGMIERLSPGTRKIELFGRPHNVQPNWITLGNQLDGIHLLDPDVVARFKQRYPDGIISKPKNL
T1 sequence (Q9HCE5 whole entry partner): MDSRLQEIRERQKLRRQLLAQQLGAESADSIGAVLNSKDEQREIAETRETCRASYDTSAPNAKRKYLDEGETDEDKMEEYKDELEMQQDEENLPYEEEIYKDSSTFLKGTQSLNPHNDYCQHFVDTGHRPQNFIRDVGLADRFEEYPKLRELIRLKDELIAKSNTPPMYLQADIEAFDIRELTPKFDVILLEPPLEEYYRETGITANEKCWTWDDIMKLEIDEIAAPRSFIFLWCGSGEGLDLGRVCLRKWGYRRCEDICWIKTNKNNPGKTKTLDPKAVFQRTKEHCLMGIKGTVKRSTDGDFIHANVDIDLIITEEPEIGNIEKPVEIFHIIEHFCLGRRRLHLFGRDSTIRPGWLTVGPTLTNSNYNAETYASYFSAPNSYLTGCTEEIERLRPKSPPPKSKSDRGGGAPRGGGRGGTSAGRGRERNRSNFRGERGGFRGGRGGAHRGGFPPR

Caov-3 cells = experiment: Caov-3 cellular viability assay (ATP-Lite, 72 h); format: cell-based; details: Homo sapiens, ATP-Lite luminescence, % viability relative to DMSO
How it was run: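 10000 cells/well treated 72 h at 37 °C, 5% CO2, in RPMI-1640 with 10% FBS and 0.1% DMSO final. Viability by ATP-Lite One Step luminescence. Expressed as % of DMSO control, with IC50 from each compound's concentration-response curve.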

| SMILES | IC50 (Kasumi-1 cells) [nM] | IC50 [1] [nM] | IC50 (Caov-3 cells) [nM] |
| --- | --- | --- | --- |
| CN(C)c1cncc(-c2cn(C3(c4ccc(N5CCC[C@@H](NCC6CC6)C5)cn4)COC3)nn2)n1 [Compound 192, (R)-6-(1-(3-(5-(3-((cyclopropylmethyl)amino)piperidin-1-yl)pyridin-2-yl)oxetan-3-yl)-1H-1,2,3-triazol-4-yl)-N,N-dimethylpyrazin-2-amine] | ≤ 500 | ≤ 50 | ≤ 500 |
| c1ncc(N2CCCC2)cc1-c1cn(C2(c3ccc(N4CCC[C@@H](NCC5CC5)C4)cn3)COC2)nn1 [Compound 194, (R)-N-(cyclopropylmethyl)-1-(6-(3-(4-(5-(pyrrolidin-1-yl)pyridin-3-yl)-1H-1,2,3-triazol-1-yl)oxetan-3-yl)pyridin-3-yl)piperidin-3-amine] | ≤ 500 | ≤ 50 | ≤ 500 |
| O=C(Nc1cncc(N2CCCC2)c1)C1(c2ccc(N3CCC[C@@H](NCC4CC4)C3)cn2)COC1 [Compound 195, (R)-3-(5-(3-((cyclopropylmethyl)amino)piperidin-1-yl)pyridin-2-yl)-N-(5-(pyrrolidin-1-yl)pyridin-3-yl)oxetane-3-carboxamide] | 500 to 5000 | ≤ 50 | 500 to 5000 |
| CC(c1cnn(-c2cncc(N(C)C)c2)c1)n1ccc(N2CCC[C@@H](NCC3CC3)C2)cc1=O (stereo partly drawn) [Compound 196, 4-((R)-3-((cyclopropylmethyl)amino)piperidin-1-yl)-1-(1-(1-(5-(dimethylamino)pyridin-3-yl)-1H-pyrazol-4-yl)ethyl)pyridin-2(1H)-one] | ≤ 500 | ≤ 50 | ≤ 500 |
| CC(n1cc(-c2cncc(N3CC(F)(F)C3)c2)nn1)n1ccc(N2CCC[C@@H](NCC3CC3)C2)cc1=O (stereo partly drawn) [Compound 197] | 500 to 5000 | ≤ 50 | 500 to 5000 |
| O=c1cc(N2CCC[C@@H](NCC3CC3)C2)ccn1Cn1cc(-c2cncc(N3CCCC3)n2)nn1 [Compound 201, (R)-4-(3-((cyclopropylmethyl)amino)piperidin-1-yl)-1-((4-(6-(pyrrolidin-1-yl)pyrazin-2-yl)-1H-1,2,3-triazol-1-yl)methyl)pyridin-2(1H)-one] | ≤ 500 | ≤ 50 | ≤ 500 |
| c1nnc(-c2cn(C3(c4ccc(N5CCC[C@@H](NCC6CC6)C5)cn4)COC3)nn2)cc1N1CCCC1 [Compound 202, (R)-N-(cyclopropylmethyl)-1-(6-(3-(4-(5-(pyrrolidin-1-yl)pyridazin-3-yl)-1H-1,2,3-triazol-1-yl)oxetan-3-yl)pyridin-3-yl)piperidin-3-amine] | ≤ 500 | ≤ 50 | ≤ 500 |
| CCN(C)c1cncc(-c2cn(C(C)n3ccc(N4CCC[C@@H](NCC5CC5)C4)cc3=O)nn2)c1 (stereo partly drawn) [Compound 203] | ≤ 500 | ≤ 50 | ≤ 500 |
| CC(n1cc(-c2cncc(NCCO)c2)nn1)n1ccc(N2CCC[C@@H](NCC3CC3)C2)cc1=O (stereo partly drawn) [Compound 205] | > 5000 | ≤ 50 | 500 to 5000 |
| c1cc(N2CCC[C@@H](NCC3CC3)C2)ncc1C1(n2cc(-c3cncc(N4CCCC4)n3)nn2)COC1 [Compound 207, (R)-N-(cyclopropylmethyl)-1-(5-(3-(4-(6-(pyrrolidin-1-yl)pyrazin-2-yl)-1H-1,2,3-triazol-1-yl)oxetan-3-yl)pyridin-2-yl)piperidin-3-amine] | ≤ 500 | ≤ 50 | ≤ 500 |
| CC(C(=O)Nc1cncc(N2CCCC2)c1)n1ccc(N2CCC[C@@H](NCC3CCC3)C2)cc1=O (stereo partly drawn) [Compound 208, 2-(4-((R)-3-((cyclobutylmethyl)amino)piperidin-1-yl)-2-oxopyridin-1(2H)-yl)-N-(5-(pyrrolidin-1-yl)pyridin-3-yl)propanamide] | 500 to 5000 | ≤ 50 | 500 to 5000 |
| c1ncc(N2CCCC2)cc1-c1cn(C2(c3ccc(N4CCC[C@@H](NCC5CC5)C4)nn3)COC2)nn1 [Compound 212, (R)-N-(cyclopropylmethyl)-1-(6-(3-(4-(5-(pyrrolidin-1-yl)pyridin-3-yl)-1H-1,2,3-triazol-1-yl)oxetan-3-yl)pyridazin-3-yl)piperidin-3-amine] | ≤ 500 | ≤ 50 | ≤ 500 |
| c1ncc(N2CCCC2)nc1-c1cn(C2(c3ccc(N4CCC[C@@H](NCC5CC5)C4)nn3)COC2)nn1 [Compound 213, (R)-N-(cyclopropylmethyl)-1-(6-(3-(4-(6-(pyrrolidin-1-yl)pyrazin-2-yl)-1H-1,2,3-triazol-1-yl)oxetan-3-yl)pyridazin-3-yl)piperidin-3-amine] | ≤ 500 | ≤ 50 | ≤ 500 |
| CC1(C)CCN(c2cncc(-c3cn(C4(c5ccc(N6CCC[C@@H](NCC7CC7)C6)cn5)COC4)nn3)n2)C1 [Compound 214, (R)-N-(cyclopropylmethyl)-1-(6-(3-(4-(6-(3,3-dimethylpyrrolidin-1-yl)pyrazin-2-yl)-1H-1,2,3-triazol-1-yl)oxetan-3-yl)pyridin-3-yl)piperidin-3-amine] | ≤ 500 | ≤ 50 | ≤ 500 |
| FC1(F)CCN(c2cncc(-c3cn(C4(c5ccc(N6CCC[C@@H](NCC7CC7)C6)cn5)COC4)nn3)n2)C1 [Compound 215, (R)-N-(cyclopropylmethyl)-1-(6-(3-(4-(6-(3,3-difluoropyrrolidin-1-yl)pyrazin-2-yl)-1H-1,2,3-triazol-1-yl)oxetan-3-yl)pyridin-3-V)piperidin-3-amine] | ≤ 500 | ≤ 50 | ≤ 500 |
| c1cc(C2(n3cc(-c4cncc(N5CC6CC6C5)n4)nn3)COC2)ncc1N1CCC[C@@H](NCC2CC2)C1 (stereo partly drawn) [Compound 216, (3R)-1-(6-(3-(4-(6-(3-azabicyclo[3.1.0]hexan-3-yl)pyrazin-2-yl)-1H-1.2.3-triazol-1-yl)oxetan-3-yl)pyridin-3-yl)-N-(cyclopropylmethyl)piperidin-3-amine] | ≤ 500 | ≤ 50 | ≤ 500 |
| O=C(Nc1cc(=O)n2ccccc2n1)C1(c2ccc(N3CCC[C@@H](NCC4CC4)C3)cn2)COC1 [Compound 217, (R)-3-(5-(3-((cyclopropylmethyl)amino)piperidin-1-yl)pyridin-2-yl)-N-(4-oxo-4H-pyrido[1,2-a]pyrimidin-2-yl)oxetane-3-carboxamide] | ≤ 500 | ≤ 50 | ≤ 500 |
| c1cc(C2(n3cc(-c4cncc(N5CC6(COC6)C5)n4)nn3)COC2)ncc1N1CCC[C@@H](NCC2CC2)C1 [Compound 221, (R)-1-(6-(3-(4-(6-(2-oxa-6-azaspiro[3.3]heptan-6-yl)pyrazin-2-yl)-1H-1,2,3-triazol-1-yl)oxetan-3-yl)pyridin-3-yl)-N-(cyclopropylmethyl)piperidin-3-amine] | 500 to 5000 | ≤ 50 | 500 to 5000 |
| c1cc(C2(n3cc(-c4cncc(N5CCC6(CC6)C5)n4)nn3)COC2)ncc1N1CCC[C@@H](NCC2CC2)C1 [Compound 222, (R)-1-(6-(3-(4-(6-(5-azaspiro[2.4]heptan-5-yl)pyrazin-2-yl)-1H-1,2,3-triazol-1-yl)oxetan-3-yl)pyridin-3-yl)-N-(cyclopropylmethyl)piperidin-3-amine] | ≤ 500 | ≤ 50 | ≤ 500 |
